Experimental data taken from patent publication US10392367B2, “IRE1 small molecule inhibitors” (QUENTIS THERAPEUTICS, INC., priority 2017, dated 2019).

Experiments:
[1] = target: T1, IRE1a (Homo sapiens, UniProt O75460); test: IRE1a Endoribonuclease Nanoluciferase Assay (XBP1 luciferase reporter in 293 T cells); type: cell-based; details: 293 T cells transfected with XBP1 luciferase reporter plasmid
Experimental: Compounds disclosed herein were assessed for disruption of IRE1 signaling using a IRE1a Endoribonuclease Nanoluciferase Assay. Briefly, 2.5×10^6 293 T cells were seeded in a 10 cm^2 tissue culture plate. About 24 hours later, the cells were transfected with Effectene. In a 15 mL Tube, the following was added: 2 μg XBP1 luciferase reporter plasmid (PGK-Luc2-P2A-XBP1u-Nanoluciferase-PEST); 300 μl EC buffer; and 16 μl Enhancer, followed by incubation at room temp for 5 minutes. Next, 60 μl Effectene (Qiagen 301427) was added, followed by incubation at room temperature for 10 minutes. 2.6 mL cDMEM media was added. Old media was aspirated from the cells, followed by addition of 7 mL fresh media. Full transfection mixture was added dropwise to cells. Cells were incubated for 6 hours, followed by tripsinization, centrifugation and resuspension in 11 mL media. 100 uL of cells were plated per a well in a 96 well plate. A day later, stressors of choice+/− inhibitors were added. To harvest, media was aspirated from cells completely, then 50 uL 1× passive lysis buffer (Promega: E1941) was added per well and put on shaker (300 rpm) for 30 minutes at room temperature. Cells were centrifuged, and 15 uL sample per well was added to a new, opaque white 384 well plate (Corning 3570). 15 uL OneGlo (nanoluciferase kit, Promega N1630) was added. Plates were spun down, placed on shaker (300 rpm) for 10 minutes. Plates were read on luminometer, 1000 ms integration time per well. 15 uL Stop and Glo (nanoluciferase kit) was added. Plates were spun down, placed on shaker (300 rpm) for 10 minutes. Plates were read on luminometer, 1000 ms second integration time per well. Recordings are provided below in Table 4.

[2] = target: T1, IRE1a; test: In vitro FRET assay (XBP1 RNA probe cleavage by IRE1a); type: biochemical; design: purchased SignalChem; details: SignalChem IRE1a protein 2 nM
Experimental: In vitro FRET assay was performed to evaluate the ability of select compounds to inhibit IRE1, the results of which are summarized in Table 3. To perform the in vitro FRET assay, 1× complete assay buffer (CAB; […] DTT, 50 mM sodium citrate pH 7.15, 1 mM magnesium acetate, 0.02% tween 20) was used to dilute SignalChem IRE1a protein to a final concentration of 2 nM. Selected compounds were serially diluted with DMSO in a non-binding black 384-well plate for a total of 15 ul in each well. 2 ul of the serially diluted compound or DMSO control were then added to new wells containing 98 ul of 1×CAB, for a total volume of 100 ul, 10 ul of which were then transferred to wells of a new plate. 5 ul of the diluted IRE1a was then added to each well. 5 ul of a […] XBP1 RNA probe was then added to each well. Fluorescence was then read over 30 minutes in kinetic mode (485/515 nm).
Two RNA probes were used, XBP1 wildtype (SEQ ID NO: 2) which is able to be spliced by active IRE1a or XBP1 mutant (SEQ ID NO: 3) which is unable to be spliced. Each probe contained a 5′ 6-FAM modification and a 3′ IOWA Black FQ modification.

T1 sequence (O75460 19-977): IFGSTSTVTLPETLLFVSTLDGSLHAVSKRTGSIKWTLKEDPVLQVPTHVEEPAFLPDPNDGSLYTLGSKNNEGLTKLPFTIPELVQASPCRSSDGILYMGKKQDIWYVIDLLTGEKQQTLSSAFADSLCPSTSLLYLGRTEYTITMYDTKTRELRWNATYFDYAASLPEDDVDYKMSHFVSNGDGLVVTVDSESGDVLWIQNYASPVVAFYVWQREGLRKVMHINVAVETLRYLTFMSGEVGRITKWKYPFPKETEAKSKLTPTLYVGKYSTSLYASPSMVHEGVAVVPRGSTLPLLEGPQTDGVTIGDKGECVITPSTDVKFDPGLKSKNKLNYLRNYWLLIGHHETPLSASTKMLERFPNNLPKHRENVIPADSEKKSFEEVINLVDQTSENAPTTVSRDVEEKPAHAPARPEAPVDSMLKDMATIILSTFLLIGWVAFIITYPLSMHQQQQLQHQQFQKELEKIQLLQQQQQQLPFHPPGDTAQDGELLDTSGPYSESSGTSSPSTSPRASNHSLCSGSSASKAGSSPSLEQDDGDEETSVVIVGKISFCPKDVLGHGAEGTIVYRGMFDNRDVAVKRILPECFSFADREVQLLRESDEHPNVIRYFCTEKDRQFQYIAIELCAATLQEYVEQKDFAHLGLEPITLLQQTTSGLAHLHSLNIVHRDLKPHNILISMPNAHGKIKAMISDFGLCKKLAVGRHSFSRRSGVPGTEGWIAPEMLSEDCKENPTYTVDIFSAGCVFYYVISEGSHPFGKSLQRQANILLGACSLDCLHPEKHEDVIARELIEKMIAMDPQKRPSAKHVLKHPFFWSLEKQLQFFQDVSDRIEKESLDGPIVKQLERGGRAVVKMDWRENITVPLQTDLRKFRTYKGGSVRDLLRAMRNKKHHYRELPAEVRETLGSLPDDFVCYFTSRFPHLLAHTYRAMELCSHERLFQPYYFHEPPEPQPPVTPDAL

| EC50 [1] [nM] | IC50 [2] [nM] | Structure (SMILES) |
| --- | --- | --- |
| 5 to 50 | ≤ 5 | CCc1cc(-c2cc(NC(=O)Nc3cc(C(F)(F)F)ccc3C(F)(F)F)nn2C)cc2cnc(N[C@H]3CC[C@H](N)CC3)nc12 [Compound 35, 1-(5-(2-(((1r,4r)-4-aminocyclohexyl)amino)-8-ethylquinazolin-6-yl)-1-methyl-1H-pyrazol-3-yl)-3-(2,5-bis(trifluoromethyl)phenyl)urea] |
| 5 to 50 | ≤ 5 | CCc1cc(-c2cc(CC(=O)Nc3ccc(OCCCNC)c(C(F)(F)F)c3)nn2C)cc2cnc(N[C@H]3CC[C@H](N)CC3)nc12 [Compound 37, 2-(5-(2-(((1r,4r)-4-aminocyclohexyl)amino)-8-ethylquinazolin-6-yl)-1-methyl-1H-pyrazol-3-yl)-N-(4-(3-(methylamino)propoxy)-3-(trifluoromethyl)phenyl)acetamide] |
| 5 to 50 | ≤ 5 | CCc1cc(-c2cc(NC(=O)Cc3cccc(C(F)(F)F)c3)nn2C)cc2cnc(N[C@H]3CC[C@H](N(C)C)CC3)nc12 [Compound 39, N-(5-(2-(((1r,4r)-4-(dimethylamino)cyclohexyl)amino)-8-ethylquinazolin-6-yl)-1-methyl-1H-pyrazol-3-yl)-2-(3-(trifluoromethyl)phenyl)acetamide] |
| 50 to 100 | ≤ 5 | CCc1cc(-c2cc(NC(=O)Cc3cccc(C(F)(F)F)c3)nn2C)cc2cnc(N[C@H]3CC[C@H](NCCOC)CC3)nc12 [Compound 40, N-(5-(8-ethyl-2-(((1r,4r)-4-((2-methoxyethyl)amino)cyclohexyl)amino)quinazolin-6-yl)-1-methyl-1H-pyrazol-3-yl)-2-(3-(trifluoromethyl)phenyl)acetamide] |
| > 100 | > 100 | CCc1cc(-c2cc(NC(=O)Cc3cc(C(F)(F)F)ccc3C(F)(F)F)nn2C)cc2cnc(N[C@H]3CC[C@H](NC(C)=O)CC3)nc12 [Compound 41, N-(5-(2-(((1r,4r)-4-acetamidocyclohexyl)amino)-8-ethylquinazolin-6-yl)-1-methyl-1H-pyrazol-3-yl)-2-(2,5-bis(trifluoromethyl)phenyl)acetamide] |
| > 100 | > 100 | CCc1cc(-c2cc(NC(=O)Cc3cc(C(F)(F)F)ccc3C(F)(F)F)nn2C)cc2cnc(N[C@H]3CC[C@H](NC(=O)COC)CC3)nc12 [Compound 42, 2-(2,5-bis(trifluoromethyl)phenyl)-N-(5-(8-ethyl-2-(((1r,4r)-4-(2-methoxyacetamido)cyclohexyl)amino)quinazolin-6-yl)-1-methyl-1H-pyrazol-3-yl)acetamide] |
| 5 to 50 | ≤ 5 | CCc1cc(-c2cc(NC(=O)Cc3cc(C(F)(F)F)ccc3OC)nn2C)cc2cnc(N[C@H]3CC[C@H](N)CC3)nc12 [Compound 43, N-(5-(2-(((1r,4r)-4-aminocyclohexyl)amino)-8-ethylquinazolin-6-yl)-1-methyl-1H-pyrazol-3-yl)-2-(2-methoxy-5-(trifluoromethyl)phenyl)acetamide] |
| 50 to 100 | 50 to 100 | CCc1cc(-c2cc(NC(=O)Cc3cc(C(F)(F)F)ccc3C(F)(F)F)nn2C)cc2cnc(N[C@H]3CC[C@H](NC(=O)CN)CC3)nc12 [Compound 44, 2-amino-N-((1r,4r)-4-((6-(3-(2-(2,5-bis(trifluoromethyl)phenyl)acetamido)-1-methyl-1H-pyrazol-5-yl)-8-ethylquinazolin-2-yl)amino)cyclohexyl)acetamide] |
